The text below walks through data of US20190142886A1, “Ecklonia cava extract and a pharmaceutical composition for preventing or treating vascular diseases comprising the same as an active ingredient” (Gachon University of Industry-Academic Cooperation …, priority 2017, published 2019).

One experiment has as its system fat cell. In words: Fat cell size in obesity-induced ob/ob mouse model (H&E staining). It counts as in vivo. To be noted: ob/ob mice, oral 2.5 mg/kg, 42 days; vs saline group, p<0.005. The source says:
(§1) 6-week-old male ob/ob mice were selected. Weight gain was induced by a general diet for 6 weeks. Then, the effect of the PPB prepared in Example 1 was investigated.
(§2) Particularly, the mice were adapted to the animal room environment for 1 week. Then, the mice were divided into two groups, which were fed with a general diet for 42 days (6 weeks). These two groups were the control (saline group) that was fed with a general diet and orally administered with saline and the experimental group (PPB group) that was fed with a general diet and orally administered with PPB at the dose of 2.5 mg/kg.
The adipose tissues were obtained from the mice of the control group and the PPB-treated experimental group prepared in Example <4-1>, and the changes of fat cell size were observed.
Particularly, the adipose tissues obtained from the mice of the control and experimental groups were made into a paraffin block, which was sectioned in the thickness of 7 μm, followed by hematoxylin-eosin staining (H&E staining). The stained tissues were photographed with Axio Imager Z1 upright microscopy system and the cell size was measured by using ImageJ 1.50i software.

For a further experiment, the system named is liver tissue. In words: Fat accumulation in liver tissue of ob/ob mouse (Oil-red-O). The experiment is classed as in vivo. As to conditions: ob/ob mice, oral 2.5 mg/kg, 42 days; vs saline group, p<0.005.
Excerpt: as §1, §2
The liver tissues were obtained from the mice of the control group and the experimental group prepared in Example <4-1>. The obtained liver tissues were made into a frozen block, which was sectioned in the thickness of 10 μm. The tissue sections were stained with 0.375% (w/v) Oil-red-O powder. The stained tissues were photographed with Axio Imager Z1 upright microscopy system and the fat accumulation area was measured by using ImageJ 1.50i software.

Experiment [1] deals with mouse-derived vascular endothelial cells (SVEC4-10). In words: PPB in vascular endothelial cell death model (palmitic acid), MTT assay. It counts as cell-based. As to conditions: 0.25 mM palmitic acid, 24 hours. As for the experimental part: Mouse-derived vascular endothelial cells (SVEC4-10) in DMEM (Dulbecco's Modified Eagle Medium) supplemented with 10% fetal bovine serum and 1% antibiotics (penicillin/streptomycin) were cultured in a 37° C., 5% CO2 incubator. To obtain sufficient cells, the cells were cultured in 100 Ø plastic dishes. When the cells were cultured until the bottom of the dish was covered 80% by the cells, the adhered cells were detached using trypsin/EDTA solution and then sub-cultured.
The mouse-derived vascular endothelial cells (SVEC4-10) obtained in Example <5-1> were treated with 0.25 mM palmitic acid, leading to the construction of a vascular endothelial cell death model (in vitro).
The cells were treated with PPB at different concentrations for 24 hours. 24 hours later, MTT assay was performed to confirm the number of survived cells. From the result, the effect of PPB on the survival of vascular endothelial cells in the presence of palmitic acid was analyzed.

Experiment [2] concerns Plasminogen activator inhibitor type-1 (PAI-1). In words: Plasma PAI-1 level in ob/ob mouse by ELISA kit. As to conditions: ob/ob mice, oral 2.5 mg/kg, 42 days; compared with saline control group. The experiment is classed as in vivo.
Excerpt: as §1, §2
In order to measure PAI-1, the biomarker for improving blood circulation, blood was collected from the mouse, and the plasma PAI-1 level was measured by using an ELISA kit.

Turning to `Oc1cc(O)cc(Oc2c(O)cc(Oc3cc(O)cc(Oc4c(O)cc(O)c5c4Oc4c(O)cc(O)c(-c6c(O)cc(O)c7c6Oc6c(O)cc(O)c(Oc8cc(O)cc(O)c8)c6O7)c4O5)c3)cc2O)c1` [PPB, pyrogallol-phloroglucinol-6,6-bieckol], the fat cell size result in the experiment with fat cell is “significantly decreased”. Besides, in the experiment on liver tissue, the “fat accumulation area in liver tissue” value was “significantly decreased”. The “number of survived cells” value in experiment [1] (5 ug/ml, vs control non-treated with PPB) is “not much different”. Moreover, in experiment [1] (10 ug/ml), the “survival rate of vascular endothelial cells” value is reported as “significantly increased”. Moreover, the “blood PAI-1 level” value in experiment [2] is reported as “reduced”.
